From patent publication US9149038B2, “4-amino-6-(heterocyclic)picolinates and 6-amino-2-(heterocyclic)pyrimidine-4-carboxylates and their use as herbicides” (Dow AgroSciences LLC, priority 2013, dated 2015)
Where two headings read alike, the source gives them in different places.

Tested on: Wheat and Barley and weed species
Assay: Post-Emergent Test III: postemergent herbicidal activity in wheat and barley, visual rating after 21 d and probit GR20/GR50/GR80/GR90 (Tables 9-13)
Format: in vivo
Conditions: for pest or weed control at 17.5 g/ha / pest or weed control at 35 g/ha / pest or weed control at 70 g/ha: post-emergence, 504 h
How it was run: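 Greenhouse plants (~18/17 °C, 14 h photoperiod) at second–third true leaf stage sprayed at 187 L/ha with a high rate and ½× to 1/16× serial dilutions. Visual injury 0–100% versus solvent-blank controls scored at 21 d; GR20, GR50, GR80 and GR90 derived by probit analysis across rates.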

Structure (SMILES): Nc1c(F)c(-c2cc3c(cc2F)OC(F)(F)O3)nc(C(=O)O)c1Cl [Compound 13]
- GR50 ALOMY (ALOMY black-grass (Alopecurus myosuroides), growth reduction of 50%, probit analysis): 20 g ai/ha
- GR80 ALOMY (ALOMY black-grass (Alopecurus myosuroides), growth reduction of 80%, probit analysis): 40 g ai/ha
- GR90 ALOMY (ALOMY black-grass (Alopecurus myosuroides), growth reduction of 90%, probit analysis): 57 g ai/ha
- GR50 APESV (APESV bentgrass (Apera spica-venti), growth reduction of 50%, probit analysis): >70 g ai/ha
- GR80 APESV (APESV bentgrass (Apera spica-venti), growth reduction of 80%, probit analysis): >70 g ai/ha
- GR90 APESV (APESV bentgrass (Apera spica-venti), growth reduction of 90%, probit analysis): >70 g ai/ha
- GR20 HORVS (HORVS barley, spring (crop), growth reduction of 20%, probit analysis): 2 g ai/ha
- pest or weed control at 17.5 g/ha (Hordeum vulgare, HORVS barley, spring (crop), 17.5 g ai/ha, read-out: Visual Growth Reduction (%) 21 Days After Application HORVS): 60 to 74%
- pest or weed control at 35 g/ha (Hordeum vulgare, HORVS barley, spring (crop), 35 g ai/ha, read-out: Visual Growth Reduction (%) 21 Days After Application HORVS): 75 to 84%
- pest or weed control at 70 g/ha (Hordeum vulgare, HORVS barley, spring (crop), 70 g ai/ha, read-out: Visual Growth Reduction (%) 21 Days After Application HORVS): 85 to 94%
- GR50 LOLSS (LOLSS ryegrass, growth reduction of 50%, probit analysis): >70 g ai/ha
- GR80 LOLSS (LOLSS ryegrass, growth reduction of 80%, probit analysis): >70 g ai/ha
- GR90 LOLSS (LOLSS ryegrass, growth reduction of 90%, probit analysis): >70 g ai/ha
- Visual Growth Reduction (%) 21 Days After Application MATCH (MATCH wild chamomile (Matricaria recutita L.), 17.5 g ai/ha): G (0-29)
- Visual Growth Reduction (%) 21 Days After Application MATCH (MATCH wild chamomile (Matricaria recutita L.), 35 g ai/ha): F (30-44)
- Visual Growth Reduction (%) 21 Days After Application MATCH (MATCH wild chamomile (Matricaria recutita L.), 70 g ai/ha): D (60-74)
- GR50 MATCH (MATCH wild chamomile (Matricaria recutita L.), growth reduction of 50%, probit analysis): 58 g ai/ha
- GR80 MATCH (MATCH wild chamomile (Matricaria recutita L.), growth reduction of 80%, probit analysis): >70 g ai/ha
- GR90 MATCH (MATCH wild chamomile (Matricaria recutita L.), growth reduction of 90%, probit analysis): >70 g ai/ha
- GR50 SETVI (SETVI green foxtail (Setaria viridis), growth reduction of 50%, probit analysis): 4 g ai/ha
- GR80 SETVI (SETVI green foxtail (Setaria viridis), growth reduction of 80%, probit analysis): 20 g ai/ha
- GR90 SETVI (SETVI green foxtail (Setaria viridis), growth reduction of 90%, probit analysis): 45 g ai/ha
- GR20 TRZAS (TRZAS wheat, spring (crop), growth reduction of 20%, probit analysis): 2 g ai/ha
- pest or weed control at 17.5 g/ha (Triticum aestivum, TRZAS wheat, spring (crop), 17.5 g ai/ha, read-out: Visual Growth Reduction (%) 21 Days After Application TRZAS): 60 to 74%
- pest or weed control at 35 g/ha (Triticum aestivum, TRZAS wheat, spring (crop), 35 g ai/ha, read-out: Visual Growth Reduction (%) 21 Days After Application TRZAS): 75 to 84%
- pest or weed control at 70 g/ha (Triticum aestivum, TRZAS wheat, spring (crop), 70 g ai/ha, read-out: Visual Growth Reduction (%) 21 Days After Application TRZAS): 75 to 84%
- Visual Growth Reduction (%) 21 Days After Application VERPE (VERPE bird's-eye speedwell (veronica persica), 17.5 g ai/ha): C (75-84)
- Visual Growth Reduction (%) 21 Days After Application VERPE (VERPE bird's-eye speedwell (veronica persica), 35 g ai/ha): B (85-94)
- Visual Growth Reduction (%) 21 Days After Application VERPE (VERPE bird's-eye speedwell (veronica persica), 70 g ai/ha): A (95-100)
- GR50 VERPE (VERPE bird's-eye speedwell (veronica persica), growth reduction of 50%, probit analysis): 3 g ai/ha
- GR80 VERPE (VERPE bird's-eye speedwell (veronica persica), growth reduction of 80%, probit analysis): 16 g ai/ha
- GR90 VERPE (VERPE bird's-eye speedwell (veronica persica), growth reduction of 90%, probit analysis): 37 g ai/ha
- pest or weed control at 17.5 g/ha (ALOMY black-grass (Alopecurus myosuroides), 17.5 g ai/ha, read-out: Visual Growth Reduction (%) 21 Days After Application ALOMY): 45 to 59%
- pest or weed control at 35 g/ha (ALOMY black-grass (Alopecurus myosuroides), 35 g ai/ha, read-out: Visual Growth Reduction (%) 21 Days After Application ALOMY): 60 to 74%
- pest or weed control at 70 g/ha (ALOMY black-grass (Alopecurus myosuroides), 70 g ai/ha, read-out: Visual Growth Reduction (%) 21 Days After Application ALOMY): 95 to 100%
- pest or weed control at 17.5 g/ha (APESV bentgrass (Apera spica-venti), 17.5 g ai/ha, read-out: Visual Growth Reduction (%) 21 Days After Application APESV): 0 to 29%
- pest or weed control at 35 g/ha (APESV bentgrass (Apera spica-venti), 35 g ai/ha, read-out: Visual Growth Reduction (%) 21 Days After Application APESV): 45 to 59%
- pest or weed control at 70 g/ha (APESV bentgrass (Apera spica-venti), 70 g ai/ha, read-out: Visual Growth Reduction (%) 21 Days After Application APESV): 60 to 74%
- pest or weed control at 17.5 g/ha (LOLSS ryegrass, 17.5 g ai/ha, read-out: Visual Growth Reduction (%) 21 Days After Application LOLSS): 0 to 29%
- pest or weed control at 35 g/ha (LOLSS ryegrass, 35 g ai/ha, read-out: Visual Growth Reduction (%) 21 Days After Application LOLSS): 0 to 29%
- pest or weed control at 70 g/ha (LOLSS ryegrass, 70 g ai/ha, read-out: Visual Growth Reduction (%) 21 Days After Application LOLSS): 0 to 29%
- pest or weed control at 17.5 g/ha (SETVI green foxtail (Setaria viridis), 17.5 g ai/ha, read-out: Visual Growth Reduction (%) 21 Days After Application SETVI): 60 to 74%
- pest or weed control at 35 g/ha (SETVI green foxtail (Setaria viridis), 35 g ai/ha, read-out: Visual Growth Reduction (%) 21 Days After Application SETVI): 75 to 84%
- pest or weed control at 70 g/ha (SETVI green foxtail (Setaria viridis), 70 g ai/ha, read-out: Visual Growth Reduction (%) 21 Days After Application SETVI): 95 to 100%
